Patent US10407404B2, “Physical form of a SGR modulator” (ASTRAZENECA AB, priority 2016, dated 2019)

Legend:
Type in all cases: cell-based
[1] = system: release of TNFα from whole blood stimulated with LPS; test: In vitro human whole blood: inhibition of TNFα release after LPS stimulation; details: LPS 30 μg/mL, 18 hr, read-out: TNFα pIC50 (converted)
Method: The anti-inflammatory activity of compounds and prednisolone was determined in vitro by their ability to inhibit the release of TNFα from whole blood stimulated with LPS. Venous blood from human donors was collected and anti-coagulated with sodium heparin and transferred to a sterile polystyrene round bottomed plate (Corning) at 190 μL per well.
Compounds were prepared from 10 mM stock solutions in dimethylsulfoxide (DMSO, Sigma) by serially diluting 1/3 in DMSO to produce a master plate with the top concentration at 3.33 mM and the lowest concentration at 0.1 μM. Compounds from the master plate were added to the blood at 1 μL/well (1/200) dilution to give final concentrations ranging between […] and 0.5 nM. Control wells received 1 μL DMSO only and the final DMSO concentration in all wells was 0.5%. […]
TNFα protein levels were determined using an AlphaLISA hTNFα kit (Perkin Elmer) according to the manufacturer's instructions. […] The samples were read at 615 nm with excitation at 680 nm using an Envision plate reader. TNFα in the samples was determined by extrapolation from the standard curve and expressed as pg/mL.
The % inhibition of TNFα was determined by the equation: % inhibition=(1−(A−B)/(C−B))×100 Here, A=TNFα in LPS stimulated samples containing compound, B=TNFα in unstimulated samples. and C=TNFα in LPS stimulated samples without compound. […]

[2] = system: tyrosine aminotransferase (TAT) mRNA expression; test: Tyrosine aminotransferase (TAT) mRNA expression in vitro assay in human primary hepatocytes; details: 18 hr, human cryopreserved primary hepatocytes, versus DMSO control, 2^-ΔΔCt, range and n in brackets
Method: The impact of test compounds on hyperglycemic events were assessed by looking at changes in mRNA expression of the gene encoding tyrosine aminotransferase (TAT), which is under direct regulation of the glucocorticoid receptor in human hepatocytes.
Human cryopreserved primary hepatocytes (BioreclamationIVT, M00995-P lot EPB) were plated to 24-well collagen I-coated plates (Becton Dickinson, 354408). Cells were allowed to attach for 4 hr before being challenged with test compounds overnight (18 hr). Cells were harvested and total RNA isolated using RNeasy Plus Mini Kit (Qiagen, 74136) followed by cDNA synthesis using High Capacity cDNA reverse transcription kit (Applied Biosystems, 4368813). Real-time RT PCR was performed on an Applied Biosystems 7500 PCR cycler, using Taqman primers for TAT (Life technologies, Hs00356930_ml) and the reference gene hypoxanthine phosphoribosyltransferase 1 (Life technologies, Hs99999909_ml).
Human cryopreserved primary hepatocytes were transferred in to pre-warmed (37° C.) plating medium (BioreclamationIVT, Z990003) and diluted to 0.7×10^6 viable cells/mL. […] Real-time RT PCR was carried out using TaqMan reagents (Life technologies) on the 7500 PCR cycler, and Ct-values for TAT gene expression was normalised to the control gene and expressed as fold change compared to DMSO control using the 2^−ΔΔCt method.

[3] = target: T1, human glucocorticoid receptor (GR) (Homo sapiens, UniProt P04150); test: GRE Antagonist Assay (ChagoK1 18:7:2 s4/GRE reporter cell line, dexamethasone pre-stimulated); details: ChaGo-K-1, relative to full antagonist effect of Mifepristone (RU486), read-out: TA antagonist Observed max Effect at 1 μM (%)
T1 construct: endogenous in cells; host or cells: ChagoK1 18:7:2 s4/GRE (human bronchogenic carcinoma ChaGo K1, ATCC HTB 168, stably carrying MMTV-GRE-LacZ reporter)
T1 sequence (P04150 1-777): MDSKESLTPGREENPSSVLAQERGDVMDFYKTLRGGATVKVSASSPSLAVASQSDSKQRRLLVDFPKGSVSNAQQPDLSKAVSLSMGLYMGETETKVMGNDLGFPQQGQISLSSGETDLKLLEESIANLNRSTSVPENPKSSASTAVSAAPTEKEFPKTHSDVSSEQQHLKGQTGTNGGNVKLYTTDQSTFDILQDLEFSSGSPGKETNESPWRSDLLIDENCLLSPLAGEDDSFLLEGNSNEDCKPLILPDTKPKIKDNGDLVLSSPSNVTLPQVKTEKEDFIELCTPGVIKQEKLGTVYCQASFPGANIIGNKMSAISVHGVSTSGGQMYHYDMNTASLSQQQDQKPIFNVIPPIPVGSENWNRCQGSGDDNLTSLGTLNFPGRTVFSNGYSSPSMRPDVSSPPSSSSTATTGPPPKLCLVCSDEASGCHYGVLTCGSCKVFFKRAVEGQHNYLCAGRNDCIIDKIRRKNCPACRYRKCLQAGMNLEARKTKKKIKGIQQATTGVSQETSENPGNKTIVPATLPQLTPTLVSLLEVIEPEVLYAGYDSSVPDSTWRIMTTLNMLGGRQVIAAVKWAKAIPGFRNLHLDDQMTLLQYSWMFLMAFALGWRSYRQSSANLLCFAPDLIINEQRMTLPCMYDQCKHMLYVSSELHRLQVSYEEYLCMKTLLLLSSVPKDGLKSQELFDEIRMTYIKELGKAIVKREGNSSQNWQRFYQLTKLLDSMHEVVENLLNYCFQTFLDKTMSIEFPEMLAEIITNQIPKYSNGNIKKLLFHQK
Description: (§1) A reporter cell line (ChagoK1 18:7:2 s4/GRE) was established by stable transfection of the human bronchogenic carcinoma celline, ChaGo K1 (ATCC: HTB 168) with a MMTV-GRE-LacZ reporter construct. The generated cell line allows for identification of compounds showing antagonist activity at the human glucocorticoid receptor (GR) via reduction of LacZ gene expression. Dexamethasone-activated GR binds to the Glucocorticoid Response Element (GRE) in the promoter of the LacZ gene and transcription is initiated. Antagonistic properties of compounds are assessed as beta-galactosidase intensity reduction from pre-stimulation with dexamethasone through a colour reaction (change in absorbance).
Cryo-preserved ChagoK1 18:7:2 s4/GRE cells were suspended in RPMI medium with 10% FBS, 1% NEAA and 1% sodium pyruvate, and seeded as 50000 cells/200 ul/well in 96-well plates and cultured at 37° C. with 5% CO2 and 95% humidity for 24 hr. Cells were pre-stimulated with 2 μl dexamethasone (70 nM final conc) for 4-5 hr, before addition of 1 μl compound at different concentrations and incubation for an additional 24 hr. […] The plates were measured at 420 nm for absorbance in a SpectraMax reader (Molecular Device).
The relative efficacy (% effect) of a compound is calculated based on the full antagonist effect of the reference compound Mifepristone (RU486): % Effect=((Sample abs−min abs)/(max abs−min abs))×100 […]

[4] = target: T1, human glucocorticoid receptor (GR); test: GRE Agonist Assay (ChagoK1 18:7:2 s4/GRE MMTV-GRE-LacZ reporter cell line)
Description: as §1, with “cell line,” for “celline,”, “agonist” for “antagonist”, “induction” for “reduction”, “Ligand-activated” for “Dexamethasone-activated”, “The resulting” for “Antagonistic properties of compounds are assessed as”, “activity is measured” for “intensity reduction from pre-stimulation with dexamethasone”
Cryo-preserved ChagoK1 18:7:2 s4/GRE cells were suspended in RPMI medium with 10% FBS, 1% NEAA and 1% sodium pyruvate, and seeded as 50000 cells/200 ul/well in 96-well plates and cultured at 37° C. with 5% CO2 and 95% humidity for 24 hours. 1 μl compound was added at different concentrations to the cells and incubated for another 24 hours. Cells were washed once in PBS and lysed with 50 al of 0.1% Triton-X for 10 min at room temperature. […] The plates were measured at 420 nm for absorbance in a SpectraMax reader (Molecular Device).
The relative efficacy (% effect) of a compound is calculated based on the full agonist effect of dexamethasone: % Effect=((Sample abs−min abs)/(max abs−min abs))×100 […]

C[C@]12C=CC(=O)C=C1CC[C@@H]1[C@@H]2[C@@H](O)C[C@@]2(C)[C@H]1CC[C@]2(O)C(=O)CO [Prednisolone, reference compound]
IC50 [1]: 316 nM
Fold Change Tyrosine Aminotransferase Gene Expression Relative to Control (1 μM) [2]: 2.5 (1.4-4.2, n = 8)

CC(C)[C@H](NC(=O)C(C)(F)F)[C@H](Oc1ccc2c(cnn2-c2ccc(=O)n(C)c2)c1)c1ccccc1 [Example 1, 2,2-difluoro-N-[(1R,2S)-3-methyl-1-{[1-(1-methyl-6-oxo-1,6-dihydropyridin-3-yl)-1H-indazol-5-yl]oxy}-1-phenylbutan-2-yl]propanamide]
IC50 [1]: 631 nM
Emax at 1 µM [3]: 70%
Emax at 1 µM ([4]; ChaGo-K-1, at 1 μM, relative to full agonist effect of dexamethasone, read-out: TA agonist Observed max Effect at 1 μM (%)): 39%
EC50 ([4]; transactivation, agonist mode, 24 h incubation, read-out: TA agonist pEC50 (converted)): 12.6 nM
